From patent US20120101032A1, “NOVEL MACROCYCLIC INHIBITORS OF HEPATITIS C VIRUS REPLICATION” (priority 2010, published 2012)

Legend:
NS3/NS4 complexes = NS3/NS4 complexes (Hepatitis C virus genotype 1a, UniProt P27958); test: biochemical; details: NS3-NS4 activity; 23° C., pH 7.5, 25 μM NS4A peptide; read-out: IC50
Method in brief: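 Enzyme IC50: NS3/NS4 complex, 23° C.; buffer Tris-HCl 50 mM pH 7.5 / glycerol 15% / DTT 10 mM / LDAO 0.6 mM / NS4A peptide 25 μM. Cellular: HCV replicon EC50.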

hepatitis C replicon = hepatitis C replicon EC50 assay; type: cell-based; details: Hepatitis C virus; hepatitis C replicon; read-out: EC50
Excerpt: NS3-NS4 inhibition activity can be determined using known assay methods.

Sequence of NS3/NS4 complexes (P27958 1027-1657, one chain of several): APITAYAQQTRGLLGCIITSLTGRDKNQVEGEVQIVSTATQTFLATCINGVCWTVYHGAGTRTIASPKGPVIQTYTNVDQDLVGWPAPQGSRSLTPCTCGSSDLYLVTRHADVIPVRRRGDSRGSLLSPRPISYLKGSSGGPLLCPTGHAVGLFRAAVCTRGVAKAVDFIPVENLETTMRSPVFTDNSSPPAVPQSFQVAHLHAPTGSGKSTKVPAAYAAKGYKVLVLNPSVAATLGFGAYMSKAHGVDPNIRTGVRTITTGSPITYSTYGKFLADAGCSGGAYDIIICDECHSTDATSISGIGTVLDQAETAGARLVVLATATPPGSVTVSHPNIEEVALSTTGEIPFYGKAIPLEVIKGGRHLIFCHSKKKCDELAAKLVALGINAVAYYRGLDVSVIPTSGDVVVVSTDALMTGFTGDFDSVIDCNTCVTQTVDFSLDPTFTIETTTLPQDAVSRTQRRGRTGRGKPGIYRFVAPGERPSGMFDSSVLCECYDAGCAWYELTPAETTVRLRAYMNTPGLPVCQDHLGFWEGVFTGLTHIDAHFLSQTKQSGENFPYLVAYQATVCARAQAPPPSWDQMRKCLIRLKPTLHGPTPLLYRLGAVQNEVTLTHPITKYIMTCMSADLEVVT

Structure (SMILES) | IC50 (NS3/NS4 complexes) [nM] | EC50 (hepatitis C replicon) [nM]
CC(C)n1c(O[C@@H]2C[C@H]3C(=O)N[C@]4(C(=O)NS(=O)(=O)N(C)C)C[C@H]4/C=C\CCCCC[C@H](NC(=O)OC(C)(C)C)C(=O)N3C2)nc2c(-c3cscn3)cccc21 [Compound 163] | < 10 | < 10
CC(C)c1ccc(Cc2csc(-c3cccc4c3nc(O[C@@H]3C[C@H]5C(=O)N[C@]6(C(=O)NS(=O)(=O)C7(C)CC7)C[C@H]6/C=C\CCCCC[C@H](NC(=O)OC(C)(C)C)C(=O)N5C3)n4C(C)C)n2)cc1 [Compound 116] | < 10 | 10 to 100
CC(C)n1c(O[C@@H]2C[C@H]3C(=O)N[C@]4(C(=O)NS(=O)(=O)C5(C)CC5)C[C@H]4/C=C\CCCCC[C@H](NC(=O)OC(C)(C)C)C(=O)N3C2)nc2c(-c3nc(Cc4cccc(Br)c4)cs3)cccc21 [Compound 117] | < 10 | 10 to 100
CC(C)c1csc(-c2cc(O[C@@H]3C[C@H]4C(=O)N[C@]5(C(=O)NS(=O)(=O)C6(C)CC6)C[C@H]5/C=C\CCCCC[C@H](NC(=O)OC(C)(C)C)C(=O)N4C3)ccn2)n1 [Compound 601] | < 10 | < 10
CC(C)c1csc(-c2cc3c(c(O[C@@H]4C[C@H]5C(=O)N[C@]6(C(=O)NS(=O)(=O)C7(C)CC7)C[C@H]6/C=C\CCCCC[C@H](NC(=O)OC(C)(C)C)C(=O)N5C4)n2)CCCC3)n1 [Compound 405] | < 10 | > 100
CC(C)n1c(O[C@@H]2C[C@H]3C(=O)N[C@]4(C(=O)NS(=O)(=O)C5(C)CC5)C[C@H]4/C=C\CCCCC[C@H](NC(=O)OC(C)(C)C)C(=O)N3C2)nc2c(-c3nc(-c4ccc(F)c(C(F)(F)F)c4)cs3)cccc21 [Compound 109] | < 10 | 10 to 100
CC(C)n1c(O[C@@H]2C[C@H]3C(=O)N[C@]4(C(=O)NS(=O)(=O)C5(C)CC5)C[C@H]4/C=C\CCCCC[C@H](NC(=O)OC(C)(C)C)C(=O)N3C2)nc2c(-c3nc(-c4cccc(Cl)c4)cs3)cccc21 [Compound 101] | < 10 | 10 to 100
CC(C)n1c(O[C@@H]2C[C@H]3C(=O)N[C@]4(C(=O)NS(=O)(=O)N(C)C)C[C@H]4/C=C\CCCCC[C@H](NC(=O)OC(C)(C)C)C(=O)N3C2)nc2c(-c3nc(Cc4cccc(OC(F)(F)F)c4)cs3)cccc21 [Compound 150] | < 10 | 10 to 100
CC(C)n1c(O[C@@H]2C[C@H]3C(=O)N[C@]4(C(=O)NS(=O)(=O)C5CC5)C[C@H]4/C=C\CCCCC[C@H](NC(=O)OC(C)(C)C)C(=O)N3C2)nc2c(-c3nc(C4CCN(C)CC4)cs3)cccc21 [Compound 184] | < 10 | < 10
CC(C)n1c(O[C@@H]2C[C@H]3C(=O)N[C@]4(C(=O)NS(=O)(=O)N(C)C)C[C@H]4/C=C\CCCCC[C@H](NC(=O)OC(C)(C)C)C(=O)N3C2)nc2c(-c3nc(-c4ccc(C(F)(F)F)cc4)cs3)cccc21 [Compound 141] | < 10 | > 100
CC(C)n1c(O[C@@H]2C[C@H]3C(=O)N[C@]4(C(=O)NS(=O)(=O)C5(C)CC5)C[C@H]4/C=C\CCCCC[C@H](NC(=O)OC(C)(C)C)C(=O)N3C2)nc2c(-c3nc(Cc4ccc(OC(F)(F)F)cc4)cs3)cccc21 [Compound 121] | < 10 | 10 to 100
CC(C)n1c(O[C@@H]2C[C@H]3C(=O)N[C@]4(C(=O)NS(=O)(=O)C5(C)CC5)C[C@H]4/C=C\CCCCC[C@H](N)C(=O)N3C2)nc2c(-c3nc(C4CCCCC4)cs3)cccc21 [Compound 178] | < 10 | > 100
CC(C)n1c(O[C@@H]2C[C@H]3C(=O)N[C@]4(C(=O)NS(=O)(=O)C5(C)CC5)C[C@H]4/C=C\CCCCC[C@H](NC(=O)OC(C)(C)C)C(=O)N3C2)nc2c(-c3nc(-c4ccc5c(c4)OCCO5)cs3)cccc21 [Compound 112] | < 10 | < 10
CC(C)n1c(O[C@@H]2C[C@H]3C(=O)N[C@]4(C(=O)NS(=O)(=O)N(C)C)C[C@H]4/C=C\CCCCC[C@H](NC(=O)OC(C)(C)C)C(=O)N3C2)nc2c(-c3nc(-c4cccc(F)c4)cs3)cccc21 [Compound 133] | < 10 | 10 to 100
